SMILES strings stand for the structures. Activity calls are given as the source filed them. No cut-off for these calls is given here.

Assay [1] deals with SH-SY5Y. The assay is described as follows: Inhibition of ischemic cell death in human SH-SY5Y cells assessed as cell viability pretreated for 30 mins followed by addition of 500 uM H2O2 measured after 6 hrs by MTS assay. The format is functional, cell-based. On the technique in general: Tetrazolium assays rely on reduction of a dye to a coloured formazan, in cell work by metabolically active cells.

In assay [2] the test system is SH-SY5Y. The assay is described as follows: Inhibition of ischemic cell death in human SH-SY5Y cells assessed as LDH release at 20 uM pretreated for 30 mins followed by addition of 500 uM H2O2 measured after 6 hrs. The format is functional, cell-based. (LDH in the medium is a marker of cell lysis.)
Assay [3] addresses T1, FAS-associated factor 1 (Homo sapiens) (UniProt Q9UNN5).
T1 sequence (whole entry): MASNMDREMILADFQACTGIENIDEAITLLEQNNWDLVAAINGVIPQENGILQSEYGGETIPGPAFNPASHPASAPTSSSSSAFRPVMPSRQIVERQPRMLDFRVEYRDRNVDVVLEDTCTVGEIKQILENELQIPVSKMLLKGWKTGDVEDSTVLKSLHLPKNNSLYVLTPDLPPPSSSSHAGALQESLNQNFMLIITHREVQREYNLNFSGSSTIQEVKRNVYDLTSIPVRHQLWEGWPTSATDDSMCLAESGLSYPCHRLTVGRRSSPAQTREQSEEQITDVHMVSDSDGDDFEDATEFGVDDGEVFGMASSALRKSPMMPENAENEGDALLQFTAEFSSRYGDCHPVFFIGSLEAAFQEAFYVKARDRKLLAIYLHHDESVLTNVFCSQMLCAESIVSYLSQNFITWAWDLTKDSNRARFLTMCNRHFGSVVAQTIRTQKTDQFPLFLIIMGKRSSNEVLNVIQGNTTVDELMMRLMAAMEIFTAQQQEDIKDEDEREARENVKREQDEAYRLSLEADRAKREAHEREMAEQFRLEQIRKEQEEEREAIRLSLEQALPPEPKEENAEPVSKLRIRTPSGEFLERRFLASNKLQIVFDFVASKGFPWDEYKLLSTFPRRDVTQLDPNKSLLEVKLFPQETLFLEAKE
The assay is described as follows: Binding affinity to FLAG-tagged FAF1 (unknown origin) expressed in H2O2-treated human SH-SY5Y cells at 100 uM after 12 hrs by immunoblot analysis. It is filed as cell-based. Background: Immunoblotting shows a protein as a band on a membrane.

The target in assay [4] is T1, FAS-associated factor 1 (Homo sapiens). The assay is described as follows: Binding affinity to FLAG-tagged FAF1 (unknown origin) expressed in H2O2-treated human SH-SY5Y cells after 12 hrs by immunoblot analysis. It is filed as cell-based.

Regarding `O=C(CSc1ccc(Br)cc1)Nc1cn(CCc2ccccc2)nc1C(=O)O`, the inhibition result in the assay on SH-SY5Y [1] and in the assay on SH-SY5Y [2] was “Active” throughout.

Consider `O=C(CCCC[C@@H]1SC[C@@H]2NC(=O)N[C@@H]21)NCCCCOc1ccc(CCn2cc(NC(=O)CSc3ccc(Br)cc3)c(C(=O)O)n2)cc1`, for which the inhibition entry (in assay [3]; with SH-SY5Y [1]; in the assay with SH-SY5Y [2]) was “Active” throughout.

For `CN(C)c1cccc2c(S(=O)(=O)NCCCCOc3ccc(CCn4cc(NC(=O)CSc5ccc(Br)cc5)c(C(=O)O)n4)cc3)cccc12`, the inhibition entry (with SH-SY5Y [1]; in assay [4]; with SH-SY5Y [2]) was “Active” throughout.

These data come from ChEMBL document CHEMBL3758172, “Design and synthesis of fluorescent and biotin tagged probes for the study of molecular actions of FAF1 inhibitor” (Bioorg Med Chem Lett, 2016).
